For 14 molecules, viability, T/C and IC50 results are on record in PubChem BioAssay AID1963869 (Molecular Pharmacology Branch, DTP, NCI, 2024).

The test system of this assay is KRAS patient-derived spheroids with HUVEC/MSC, viability. The assay is described as follows: Anticancer human tumor 323965-272-R-J2-PDC patient-derived pancreatic carcinoma cell line growth inhibition [KRAS2]. The following applies: for viability, T/C: stronger effect = lower value. An excerpt: Multicellular complex tumor spheroid response to RAS pathway inhibitors in combination with a targeted agents in patient-derived cell lines with oncogenic KRAS variants from multiple cancer types
A high-throughput screen of multi-cell type tumor spheroids was designed to identify active combinations of targeted small molecules and KRAS pathway inhibitors. Complex spheroids include a stromal component modeled by human endothelial cells (HUVEC) and fibroblasts modeled by human mesenchymal stem cells (MSCs). The concentration ranges selected for each drug and investigational agent were based upon clinically achievable concentrations if the clinical Cmax of the agent was known.
Compounds. The drugs and investigational agents: BI-3406 (NSC825286), BAY-293 (NSC824723), batoprotafib (TNO155; NSC825523), sotorasib (AMG 510; NSC818433), MRTX1257 (NSC819558), elimusertib (BAY 1895344; NSC800525), molibresib (GSK525762; NSC774829), temuterkib (LY3214996; NSC803410), venetoclax (NSC766270), alisertib (NSC759677), olaparib (NSC753686), talazoparib (NSC767125), erdafitinib (NSC781556), ipatasertib (NSC767898), cabozantinib (NSC761068), nintedanib (NSC756659), abemaciclib (NSC768073), docetaxel (NSC628503), trametinib (NSC758246), and sapanisertib (NSC764658) were obtained from the National Cancer Institute (NCI) Developmental Therapeutics Program Chemical Repository. The FDA-approved anticancer drug set is available from the Developmental Therapeutics Program. […] The stock solutions were prepared in dimethyl sulfoxide (DMSO, Sigma-Aldrich, St. Louis, MO, cat. D2650) at 800-fold the tested concentration and stored at -70 degrees C prior to their use. All drugs and investigational agents were tested over a range starting from a high concentration at or near the clinical Cmax and decreasing in half-log increments. If the clinical Cmax for an agent had not been determined, the highest concentration tested was 10 microM.
Cell Culture. All cells were maintained in an incubator at 37 degrees C and 5% CO2 with 95% humidity. The PDC lines were cultured according to standard operating procedures established by the NCI PDMR (https://pdmr.cancer.gov/sops/default.htm). Briefly, all PDCs were thawed and cultured in Matrigel-coated flasks prepared with a working solution of 1X Ham's F-12 nutrient mix, without supplementation (Invitrogen, Waltham, MA, cat. 11765054), 100 U/mL penicillin-streptomycin (Invitrogen, cat. 15140122), and 2.5% Matrigel (Corning Inc., Corning, NY, cat. 354248) for the first three passages. All PDCs were cultured in complete DMEM/F-12 media containing advanced DMEM/F-12 (Invitrogen, cat. 12634028), 4.9% defined fetal bovine serum, heat inactivated (HyClone Laboratories Inc., Logan, UT, cat. SH30070.03HI), 389 ng/mL hydrocortisone (Sigma-Aldrich, cat. H4001), 9.7 ng/mL human EGF recombinant protein (Invitrogen, cat. PHG0313), 23.4 microg/mL adenine (Sigma-Aldrich, cat. A2786), 97.3 U/mL penicillin-streptomycin (Invitrogen, cat. 15140122), 1.9 mM L-glutamine (Invitrogen, cat. 25030081), and 9.7 microM Y-27632 dihydrochloride (Tocris Bioscience, Bristol, United Kingdom, cat. 1254). The PDCs were cultured in complete DMEM/F12 media without 9.7 microM Y-27632 dihydrochloride for at least two passages prior to the screen. The established cell line HOP-62 was cultured in RPMI 1640 medium, HEPES (Invitrogen, cat. 22400105) with 10% defined fetal bovine serum (HyClone Laboratories Inc., cat. SH30070.03) and 2 mM L-glutamine (Invitrogen, cat. 25030081). The pooled donor HUVEC were cultured in endothelial cell growth medium 2 (PromoCell, Heidelberg, Germany, cat. C-22011) and the hMSC were cultured in mesenchymal stem cell growth medium 2 (PromoCell, cat. C-28009). For all experiments, HUVEC and hMSC were used at passages </=5, while the malignant cell lines were used at passages </=15. […]

Setting [1] is: compound alone, run of 08/26/2021.
Setting [2] is: compound alone, run of 09/02/2021.

Several values for one entry are separate records, joined by “and”; a condition that tells them apart may be missing. Identical values can stand only once. Bounds are passed on as bounds.
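Further: spheroids exposed to agents for 7 days.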

By viability, T/C is commonly meant the ratio of treated to control. Usually IC50 stands for the point on the concentration scale where inhibition reaches its midpoint. With `C=CC(=O)N1CCN(c2nc(OCC3CCCN3C)nc3c2CCN(c2cccc4cccc(C)c24)C3)CC1CC#N` (stereo not drawn), the viability, T/C was 70.1% [middle of 17 runs] (compound 0.0316 µM), 60.4% [middle of 17 runs] (compound 0.1 µM) and 57.9% [middle of 17 runs] (compound 1 µM). For the same molecule, the IC50 by setting is: under setting [1], 1.07 µM [middle of 5 runs]; under setting [2], 1.12 µM [middle of 6 runs].

Regarding `CC(=O)Nc1cccc(-n2c(=O)n(C3CC3)c(=O)c3c(Nc4ccc(I)cc4F)n(C)c(=O)c(C)c32)c1`, the viability, T/C runs as follows: (compound 0.0001 µM) 98.3% [middle of 5 runs]; (compound 0.000316 µM) 90.7% [middle of 5 runs]; (compound 0.001 µM) 76.2% [middle of 5 runs]; (compound 0.00316 µM) 57.5% [middle of 5 runs]; (compound 0.01 µM) 44.7% [middle of 5 runs]; (compound 0.0316 µM) 31.2% [middle of 5 runs]. Further, the IC50 (curve of compound) is 5.93 nM [middle of 5 runs].

Regarding `CC(=O)OC12COC1CC(O)C1(C)C(=O)C(O)C3=C(C)C(OC(=O)C(O)C(NC(=O)OC(C)(C)C)c4ccccc4)CC(O)(C(OC(=O)c4ccccc4)C21)C3(C)C` (stereo not drawn), the viability, T/C was 35.9% [middle of 5 runs] (compound 0.01 µM); 35.4% [middle of 5 runs] (compound 0.0316 µM); 32.5% [middle of 5 runs] (compound 0.1 µM); 36.5% [middle of 5 runs] (compound 0.316 µM); 34% [middle of 5 runs] (compound 1 µM); 34.3% [middle of 5 runs] (compound 3.16 µM). Besides, the IC50 (curve of compound) is below 0.01 µM.

As to `CC(C)n1nc(-c2ccc3oc(N)nc3c2)c2c(N)ncnc21`, the viability, T/C reads like this: (compound 0.000316 µM) 91% [middle of 5 runs]; (compound 0.001 µM) 81.3% [middle of 5 runs]; (compound 0.00316 µM) 54.4% [middle of 5 runs]; (compound 0.01 µM) 33.1% [middle of 5 runs]; (compound 0.0316 µM) 24.4% [middle of 5 runs]; (compound 0.1 µM) 21.4% [middle of 5 runs]. Besides, the IC50 (curve of compound) is 4 nM [middle of 5 runs].

Consider `CC1(C)CCC(CN2CCN(c3ccc(C(=O)NS(=O)(=O)c4ccc(NCC5CCOCC5)c([N+](=O)[O-])c4)c(Oc4cnc5[nH]ccc5c4)c3)CC2)=C(c2ccc(Cl)cc2)C1`, for which the viability, T/C was 100% [middle of 5 runs] (compound 0.0316 µM); 94.9% [middle of 5 runs] (compound 0.1 µM); 98% [middle of 5 runs] (compound 0.316 µM); 96.1% [middle of 5 runs] (compound 1 µM); 21% [middle of 5 runs] (compound 3.16 µM); 7.62% [middle of 5 runs] (compound 10 µM). The half-maximal inhibitory concentration (IC50) (curve of compound) is 1.99 µM [middle of 5 runs].

Consider `CC1COCCN1c1cc(-c2ccnn2C)c2ccnc(-c3ccn[nH]3)c2n1` (stereo not drawn), for which the viability, T/C (compound 0.01 µM) is 77.9% [middle of 5 runs]; the viability, T/C (compound 0.0316 µM) is 39.8% [middle of 5 runs]; the viability, T/C (compound 0.1 µM) was 25.1% [middle of 5 runs]; the viability, T/C (compound 0.316 µM) is 21.9% [middle of 5 runs]; the viability, T/C (compound 1 µM) is 20.6% [middle of 5 runs]; the viability, T/C (compound 3.16 µM) is 18.9% [middle of 5 runs]. Besides, the IC50 (curve of compound) is 23.8 nM [middle of 5 runs].

On to `CC1OCC2(CCN(c3cnc(Sc4ccnc(N)c4Cl)c(N)n3)CC2)C1N` (stereo not drawn), for which the viability, T/C was 77.5% and 85.9% and 85.1% (compound 0.0316 µM); 60% [middle of 19 runs] (compound 0.316 µM). Further, the IC50 by setting is: under setting [1], 785 nM [middle of 5 runs]; under setting [2], 535 nM [middle of 6 runs]; (curve of compound) 1.1 µM [middle of 5 runs].

Consider `CCN1CCN(Cc2ccc(Nc3ncc(F)c(-c4cc(F)c5nc(C)n(C(C)C)c5c4)n3)nc2)CC1`, for which the viability, T/C by setting is: (compound 0.00316 µM) 93.4% [middle of 5 runs]; (compound 0.0316 µM) 76.6% [middle of 5 runs]; (compound 0.1 µM) 61% [middle of 5 runs]; (compound 0.316 µM) 62.1% [middle of 5 runs]; (compound 1 µM) 62.6% [middle of 5 runs]. Besides, where the note is “curve of compound”, the IC50 is above 1 µM.

For the molecule `CCNC(=O)CC1N=C(c2ccc(Cl)cc2)c2cc(OC)ccc2-n2c(C)nnc21` (stereo not drawn), the viability, T/C is 97.2% [middle of 5 runs] (compound 0.0316 µM); 83.4% [middle of 5 runs] (compound 0.1 µM); 62.2% [middle of 5 runs] (compound 0.316 µM); 44.5% [middle of 5 runs] (compound 1 µM); 39.8% [middle of 5 runs] (compound 3.16 µM); 36.7% [middle of 5 runs] (compound 10 µM). Further, for the setting “curve of compound”, the IC50 was 798 nM [middle of 5 runs].

On to `CN(C)C/C=C/C(=O)Nc1cc2c(Nc3ccc(F)c(Cl)c3)ncnc2cc1O[C@H]1CCOC1`, for which the viability, T/C runs as follows: (compound 0.000316 µM) 99% [middle of 5 runs]; (compound 0.001 µM) 97.1% [middle of 5 runs]; (compound 0.00316 µM) 89.2% [middle of 5 runs]; (compound 0.01 µM) 81% [middle of 5 runs]; (compound 0.0316 µM) 74.5% [middle of 5 runs]; (compound 0.1 µM) 73.5% [middle of 5 runs]. Besides, the IC50 (curve of compound) is above 0.1 µM.

`COc1cc(Nc2ncc3c(n2)-c2ccc(Cl)cc2C(c2c(F)cccc2OC)=NC3)ccc1C(=O)O`: the viability, T/C reads like this: (compound 0.0316 µM) 91.7% [middle of 5 runs]; (compound 0.1 µM) 72.2% [middle of 5 runs]; (compound 0.316 µM) 45.2% [middle of 5 runs]; (compound 1 µM) 51.5% [middle of 5 runs]; (compound 3.16 µM) 65.7% [middle of 5 runs]; (compound 10 µM) 69% [middle of 5 runs]. The IC50 (curve of compound) was 10 µM and > 10 µM.

In the case of `Cn1nccc1Nc1nccc(-c2cc3c(s2)C(C)(C)N(CCN2CCOCC2)C3=O)n1`, the viability, T/C (compound 0.0316 µM) was 92.9% [middle of 5 runs]; the viability, T/C (compound 0.1 µM) was 87.8% [middle of 5 runs]; the viability, T/C (compound 0.316 µM) is 77.6% [middle of 5 runs]; the viability, T/C (compound 1 µM) was 61.5% [middle of 5 runs]; the viability, T/C (compound 3.16 µM) was 43.7% [middle of 5 runs]; the viability, T/C (compound 10 µM) is 38.1% [middle of 5 runs]. Moreover, the 50% inhibitory concentration (IC50) (curve of compound) is 2.35 µM [middle of 5 runs].

With `Cn1ncnc1[C@H]1c2n[nH]c(=O)c3cc(F)cc(c23)N[C@@H]1c1ccc(F)cc1`, the viability, T/C is 107% [middle of 4 runs] (compound 0.000316 µM); 104% [middle of 4 runs] (compound 0.001 µM); 109% (2×) and 98.1% and 107% (compound 0.00316 µM); 101% [middle of 4 runs] (compound 0.01 µM); 101% [middle of 4 runs] (compound 0.0316 µM); 89.2% [middle of 4 runs] (compound 0.1 µM). For the setting “curve of compound”, the half-inhibitory concentration (IC50) was above 0.1 µM.

`O=C(c1cc(Cc2n[nH]c(=O)c3ccccc23)ccc1F)N1CCN(C(=O)C2CC2)CC1`: the viability, T/C by setting is: (compound 0.0316 µM) 102% [middle of 5 runs]; (compound 0.1 µM) 102% [middle of 5 runs]; (compound 0.316 µM) 96.4% [middle of 5 runs]; (compound 1 µM) 100% [middle of 5 runs]; (compound 3.16 µM) 92.1% [middle of 5 runs]; (compound 10 µM) 59.7% [middle of 5 runs]. The half-maximal inhibitory concentration (IC50) (curve of compound) was above 10 µM.
